Measured values published in patent US20260308158A1, “TARGETING RNAS ASSOCIATED WITH TAUOPATHIES WITH SMALL MOLECULES” (University of Florida Research Foundation, Incorporated, priority 2023, published 2026).

Tested on: MAPT exon 10 splicing in primary neurons from htau mice
Experiment: 4R/3R MAPT mRNA by RT-qPCR in primary neurons from htau mice
Format: cell-based, human MAPT in htau transgenic mouse neurons
Settings: 48 h
Protocol: RNA Isolation and Real-Time Quantitative PCR (RT-qPCR). HeLa cells were treated as described in the Luciferase Reporter assay to Study Exon 10 Alternative Splicing. LAN5 cells were seeded in 12-well plates at 0.2×10^6 cells per well, treated with compound or ASO, and incubated for 48 h. Compound stocks prepared in DMSO and ASO stocks prepared in water were diluted in growth medium and added to cells. Total RNA was extracted from cells and analyzed via RT-qPCR to determine levels of 3R and 4R tau mRNA. In brief, the cells were washed with 1×DPBS and then lysed in the well using 300 μL of Lysis Buffer provided in a Quick-RNA MiniPrep kit (Zymo Research), which was used to extract total RNA per the manufacturer's protocol including the on-column DNase I digestion. The concentration of total RNA was measured by NanoDrop 2000 (Thermo Fisher Scientific). Only samples with OD260/OD280>1.8 were carried forward for analysis. Reverse transcription (RT) was carried out on 200 ng of total RNA using a qScript cDNA synthesis kit (QuantaBio) in a total volume of 10 μL according to the manufacturer's protocol. An Applied Biosystems QS5 384-well PCR system was used to complete qPCR reactions with Power SYBR Green Master Mix (Life Technologies), 600 nM each primer (Table S3), 20 ng of cDNA (1 μL of the RT reaction), in a total volume of 33 μL. Technical triplicates (10 μL each) were aliquoted into 384-well qPCR plates (Applied biosystems, 4483285). Subsequent qPCR analysis was performed using an Applied Biosystems QS5 384-well PCR system (software v.1.3.0). 4R/3R ratio were analyzed using ΔΔCt method using Equation 2: […]
Isolation and Treatment of Primary Neurons from Humanized tau (hTau) Transgenic Mice. All animal studies were completed as approved by the Scripps Florida Institutional Animal Care and Use Committee. […]

## COc1cc(N)ncc1CCCN(C)CCCn1cnc2c3ccccc3n(C)c2c1=O [Compound 2, 3-(3-((3-(6-amino-4-methoxypyridin-3-yl)propyl)(methyl)amino)propyl)-5-methyl-3,5-dihydro-4H-pyrimido[5,4-b]indol-4-one]
  4R/3R ratio and PSI10: dose dependent reduction
  relative potency (4R/3R ratio and PSI10): more potent than 1
